{"source": "paper PMC11478212", "about": "“Antitumoral and Antiproliferative Potential of Synthetic Derivatives of Scorpion Peptide IsCT1 in an Oral Cavity Squamous Carcinoma Model” (Molecules, 2024)", "key": {"[1]": {"test": "Resistance to degradation in 25% fetal bovine serum", "type": "in vitro ADME", "conditions": "25% fetal bovine serum in water, 37 °C, HPLC peak area vs t = 0 h, triplicate; for remaining at 0.5 h: read-out: peptide remaining intact after 30 min; for remaining at 6 h: read-out: peptide remaining intact after 6 h", "procedure": "Figure 1 (a) Helical wheel projections of the IsCT1, AFPK-IsCT1, KKK-IsCT1, and IsCT-P peptides were generated using the Heliquest server (https://heliquest.ipmc.cnrs.fr/, accessed on 15 July 2024). In these projections, yellow, gray, and green circles represent hydrophobic amino acids, while blue and pink circles denote hydrophilic amino acids. (b) Resistance to degradation assays for all peptides were performed over 6 h in a solution containing 25% fetal bovine serum (FBS). These experiments were conducted in triplicate and aliquots were collected for analysis at 0, 0.5, 1, 2, 4, and 6 h of incubation. The aliquots were subsequently analyzed using high-performance liquid chromatography (HPLC) after each incubation period. The degradation kinetics of the peptides were determined by comparing the integrated peak area associated with the peptide at the start of the experiment (t = 0 h) with the integrated peak area at subsequent time points (t = 0.5, 1, 2, 4, 6 h). (c) The hemolytic activity of synthetic peptides analogous to IsCT1 was assessed on human erythrocytes within a concentration range of 0.13–128 μmol L^−1 in phosphate-buffered saline (PBS) (n = 3). A 1% solution of sodium dodecyl sulfate (SDS) in PBS served as a positive control, while PBS alone was used as a negative control. (d) A table summarizing the sequences, molecular weights, and physicochemical properties of the IsCT1, AFPK-IsCT1, and KKK-IsCT1 peptides. […]\nStability assays were conducted using GIBCO (Waltham, MA, USA) fetal bovine serum diluted to 25% in water, as described by Torres et al.. Briefly, peptide solutions were added to the serum solution and maintained at 37 °C. The experiments were carried out in triplicate and samples were taken at 0, 0.5, 1, 2, 4, and 6 h post incubation. The degradation kinetics were monitored using liquid chromatography and the percentage of remaining peptides was calculated by integrating the peak area of the peptide."}, "FN1 cells": {"test_system": "FN1 cells", "test": "MTT cell viability", "type": "cell-based", "conditions": "FN1 normal human fibroblasts, treatment 24 and 48 h (time of IC50 not given), absorbance 540 nm, N/IC50 = no IC50 for the tested concentrations, no toxicity", "procedure": "(§1) Cell survival was assessed using an MTT assay. Tumor (SSC-9 and SSC-25) and normal cells (FN1 and J-774) were incubated in 96-well plates at a density of 10^5 cells/mL for 24 h. Subsequently, treatments were administered as described in Table 1 for 24 and 48 h. After the treatment period, the supernatant was aspirated and 100 μL of MTT at a concentration of 5 mg/mL (Calbiochem—Darmstadt, Germany) was added to the plate and incubated for 3 h at 37 °C with 5% CO2. Afterward, the content was removed and 200 μL of methanol was added to dissolve the formazan crystals. Absorbance was then measured at a wavelength of 540 nm using a microplate reader. The hemolysis assay was performed as previously reported."}, "J774 cells": {"test_system": "J774 cells", "test": "MTT cell viability", "type": "cell-based", "conditions": "J774 normal macrophages, treatment 24 and 48 h (time of IC50 not given), absorbance 540 nm, N/IC50 = no IC50 for the tested concentrations, no toxicity", "procedure": "as §1"}, "SCC-25 cells": {"test_system": "SCC-25 cells", "test": "MTT cell viability", "type": "cell-based", "conditions": "treatment 24 and 48 h (time of IC50 not given), absorbance 540 nm, N/IC50 = no IC50 for the tested concentrations, no toxicity", "procedure": "as §1"}, "SCC-9 cells": {"test_system": "SCC-9 cells", "test": "MTT cell viability", "type": "cell-based", "conditions": "treatment 24 and 48 h (time of IC50 not given), absorbance 540 nm, N/IC50 = no IC50 for the tested concentrations, no toxicity", "procedure": "as §1"}, "SCC-25 tumor cells [2]": {"test_system": "SCC-25 tumor cells", "test": "Cell cycle phase and DNA fragmentation analysis (flow cytometry)", "type": "cell-based", "conditions": "24 h, IsCT-P and AC-AFPK-IsCT1 at IC50, others 100 µM", "procedure": "(§2) Figure 3 Analysis of cell cycle phases following a 24 h treatment with synthetic analogs of IsCT1 peptides. The indicated cells were treated at the IC50 values obtained for the IsCT-P and AC-AFPK-IsCT1 peptides and at a concentration of 100 µM for the other peptides. (a) Representative histograms of cell distribution across cell cycle phases; (b) bar graph showing the correlation of the effect on cell cycle and fragmented DNA, expressed as the mean ± SD of three independent SCC-9 tumor cell experiments; (c) bar graph showing the correlation of the effect on cell cycle and fragmented DNA, expressed as the mean ± SD of three independent experiments on SCC-25 tumor cells; (d) bar graph showing the correlation of the effect on cell cycle and fragmented DNA, expressed as the mean ± SD of three independent experiments of normal FN1 cells; (e) bar graph showing the correlation of the effect on cell cycle and fragmented DNA, expressed as the mean ± SD of three independent experiments of normal J774 cells. Statistical differences were obtained using ANOVA and Tukey–Kramer multiple comparison tests. * p < 0.05, ** p < 0.01, and *** p < 0.001 denote significance. ns = not significant.\n(§3) Tumor (SSC-9 and SSC-25) and normal cells (FN1 and J-774) were subjected to treatment for 24 h at the peptides’ IC50 concentrations. Treated and control cells were trypsinized and centrifuged at 1200 rpm for 5 min. The resulting pellet was resuspended in 1 mL of cold buffer, followed by the addition of 3 mL of absolute ethanol. Samples were stored at −20 °C for 24 h. The samples were then centrifuged at 1500 rpm for 10 min and resuspended in 200 μL of FACS buffer containing 0.1% Triton X-100 (Sigma-Aldrich, St. Louis, MO, USA), 50 μg/mL propidium iodide (Sigma-Aldrich), and 1 µL of RNAse (200×). This mixture was kept at room temperature and protected from light for 30 min. The samples were then transferred to cytometry tubes and analyzed using a FACScanto flow cytometer (BD) with 10,000 events, and histograms were acquired and analyzed using ModFit LT 5.0 software."}, "SCC-9 tumor cells": {"test_system": "SCC-9 tumor cells", "test": "Cell cycle phase and DNA fragmentation analysis (flow cytometry)", "type": "cell-based", "conditions": "24 h, 100 µM, compared to the control", "procedure": "as §2, §3"}, "SCC-25 tumor cells [3]": {"test_system": "SCC-25 tumor cells", "test": "Mitochondrial membrane electrical potential (ΔΨm) by flow cytometry", "type": "cell-based", "conditions": "24 h, IsCT-P and AC-AFPK-IsCT1 at IC50, others 100 µM, MitoRed, mean ± SD of three independent experiments", "procedure": "Figure 4 Analysis of mitochondrial electrical potential (ΔΨm) using flow cytometry following a 24 h treatment with synthetic analogs of IsCT1 peptides. The indicated cells were treated at the IC50 values obtained for the IsCT-P and AC-AFPK-IsCT1 peptides and at a concentration of 100 µM for the other peptides. (a) Representative histograms of cell distribution according to ΔΨm; (b) bar graph showing ΔΨm expressed as the mean ± SD of three independent experiments of SCC-9 tumor cells; (c) bar graph showing ΔΨm expressed as the mean ± SD of three independent experiments of SCC-25 tumor cells; (d) bar graph showing ΔΨm expressed as the mean ± SD of three independent experiments of normal FN1 cells; (e) bar graph showing ΔΨm expressed as the mean ± SD of three independent experiments of normal J774 cells. Statistical differences were obtained using ANOVA and Tukey–Kramer multiple comparison tests. * p < 0.05, ** p < 0.01, and *** p < 0.001 denote significance. ns = not significant.\nTumor (SSC-9 and SSC-25) and normal cells (FN1 and J-774) were subjected to treatment for a period of 24 h at the peptides’ IC50 concentrations. After treatment, the cells were trypsinized, centrifuged at 1200 rpm for 5 min, the supernatant was discarded, and the cells were resuspended in complete medium containing MitoRed™ (Sigma-Aldrich, USA) (200 nM/L). Subsequently, the samples were incubated in an incubator at 37 °C with 5% CO2 for 30 min. The tubes were then centrifuged, the supernatant was discarded, and the pellet was resuspended in 200 μL of FACS buffer. Readings were performed using a FACScanto flow cytometer (BD) with 10,000 events, and histograms were acquired and analyzed using FCS Express software 2.0."}}, "note": "Read-outs that look alike come from different tables or passages of the source. Where no end group is shown, it is not given here.", "data": [{"substance": "ALGKFWPKIKSLF-NH2 [AFPK-IsCT1]", "values": [{"measurement": "remaining at 0.5 h", "setting": "[1]; 30 min", "result": 50, "unit": "%"}, {"measurement": "remaining at 6 h", "setting": "[1]", "result": 8, "unit": "%"}, {"measurement": "IC50", "setting": "FN1 cells", "result": "N/IC50"}, {"measurement": "IC50", "setting": "J774 cells", "result": "N/IC50"}, {"measurement": "IC50", "setting": "SCC-25 cells", "result": "N/IC50"}, {"measurement": "IC50", "setting": "SCC-9 cells", "result": "N/IC50"}, {"measurement": "fragmented DNA", "setting": "SCC-25 tumor cells [2]", "result": "No significant DNA fragmentation"}, {"measurement": "increase in fragmented DNA", "setting": "SCC-9 tumor cells", "result": 13.6, "unit": "%"}, {"measurement": "decrease in ΔΨm", "setting": "SCC-25 tumor cells [3]", "result": "40.5 ± 0.4", "unit": "%"}]}, {"substance": "Ac-ILKKIWKGKKSLF-NH2 [AC-KKK-IsCT1]", "values": [{"measurement": "metabolised at 0.5 h", "setting": "[1]; 30 min", "result": 50, "unit": "%"}, {"measurement": "time to complete degradation", "setting": "[1]", "result": "≤ 4", "unit": "h"}, {"measurement": "IC50", "setting": "FN1 cells; read-out: IC50", "result": 100, "unit": "µM"}, {"measurement": "IC50", "setting": "J774 cells", "result": "N/IC50"}, {"measurement": "IC50", "setting": "SCC-25 cells", "result": "N/IC50"}, {"measurement": "IC50", "setting": "SCC-9 cells", "result": "N/IC50"}, {"measurement": "fragmented DNA", "setting": "SCC-25 tumor cells [2]", "result": 12.4, "unit": "%"}]}, {"substance": "H-ILKKIWKGKKSLF-NH2 [KKK-IsCT1]", "values": [{"measurement": "remaining at 0.5 h", "setting": "[1]; 30 min", "result": 50, "unit": "%"}, {"measurement": "remaining at 6 h", "setting": "[1]", "result": 8, "unit": "%"}, {"measurement": "IC50", "setting": "FN1 cells", "result": "N/IC50"}, {"measurement": "IC50", "setting": "J774 cells", "result": "N/IC50"}, {"measurement": "IC50", "setting": "SCC-25 cells", "result": "N/IC50"}, {"measurement": "IC50", "setting": "SCC-9 cells", "result": "N/IC50"}, {"measurement": "fragmented DNA", "setting": "SCC-25 tumor cells [2]", "result": 19, "unit": "%"}]}]}
